Measurements from publication PMC8286840, “Identifying SARS-CoV-2 antiviral compounds by screening for small molecule inhibitors of Nsp3 papain-like protease” (Biochemical Journal, 2021).
Counter-ions that a name gives are not always drawn. Like-named read-outs stand apart in the source and are kept apart here.

Key:
[1] = target: T1, SARS-CoV-2 PLpro (nsp3 1564–1878) (Severe acute respiratory syndrome coronavirus 2, UniProt P0DTD1); assay: biochemical; parameters: FRET-quenched peptide (Pro3) cleavage by PLpro, 10 min pre-incubation, slope over 20 min, normalised to no-compound control; conditions: read-out: % of control remaining
[2] = target: T1, SARS-CoV-2 PLpro (nsp3 1564–1878); assay: biochemical; parameters: FRET-quenched peptide (Pro3) cleavage by PLpro, 10 min pre-incubation, slope over 20 min, normalised to no-compound control; conditions: read-out: % of control remaining; remark: listed apart in the source

CO/N=C(\C(=O)N[C@@H]1C(=O)N2C(C(=O)O)=C(Cn3ccc(=N)n3CCO)CS[C@H]12)c1csc(N)n1 [Cefoselis sulfate]
remaining activity at 1.25 µM ([1]; Well no.=5199, low concentration screen): 96.6% | remaining activity at 3.75 µM ([2]; Well no.=5199, high concentration screen): 100%

CC(C)NC[C@@H](O)COc1ccc(CC(N)=O)cc1 [R(+)-Atenolol]
remaining activity at 1.25 µM ([1]; Well no.=302, low concentration screen): 94.7% | remaining activity at 3.75 µM ([2]; Well no.=302, high concentration screen): 94.8%

CN1C2CCC1CC(NC(=O)c1nn(C)c3ccccc13)C2 (centres unmarked) [LY-278,584 maleate]
remaining activity at 1.25 µM [1]: 98.8% | remaining activity at 3.75 µM [2]: 101%

O=S(=O)(NCCNC/C=C/c1ccc(Br)cc1)c1cccc2cnccc12 [H 89 dihydrochloride - N-[2-[[3-(4-Bromophenyl)-2-propenyl]amino]ethyl]-5-isoquinolinesulfonamide dihydrochloride]
remaining activity at 1.25 µM ([1]; Well no.=2636, low concentration screen): 95.6% | remaining activity at 3.75 µM ([2]; Well no.=2636, high concentration screen): 99.1%

Cc1ccc(=O)n(-c2ccccc2)c1 [Pirfenidone]
remaining activity at 1.25 µM ([1]; Well no.=904, low concentration screen): 107% | remaining activity at 3.75 µM ([2]; Well no.=904, high concentration screen): 109%

CO[C@@H]1[C@H](O)C[C@@H](O[C@@H]2C[C@H](Oc3cc4cc5c(c(O)c4c(O)c3C)C(=O)[C@@H](O[C@H]3C[C@@H](O[C@H]4C[C@@H](O[C@H]6C[C@](C)(O)[C@@H](OC(C)=O)[C@H](C)O6)[C@H](O)[C@@H](C)O4)[C@H](O)[C@@H](C)O3)[C@H]([C@H](OC)C(=O)[C@@H](O)[C@@H](C)O)C5)O[C@H](C)[C@@H]2OC(C)=O)O[C@@H]1C [Chromomycin A3]
remaining activity at 1.25 µM ([1]; Well no.=3579, low concentration screen): 103% | remaining activity at 3.75 µM ([2]; Well no.=3579, high concentration screen): 107%

Clc1ccccc1C(c1ccccc1)(c1ccccc1)n1ccnc1 [Clotrimazole]
remaining activity at 1.25 µM ([1]; Well no.=372, low concentration screen): 97.9% | remaining activity at 3.75 µM ([2]; Well no.=372, high concentration screen): 99.9%

CCCC[N+]1(C)[C@H]2CC(OC(=O)C(CO)c3ccccc3)C[C@H]1[C@H]1O[C@H]12 (some centres unmarked) [Scopolamine N-butyl]
remaining activity at 1.25 µM ([1]; Well no.=2243, low concentration screen): 95% | remaining activity at 3.75 µM ([2]; Well no.=2243, high concentration screen): 91.9%

COC[C@H](NC(=O)c1cnc(C)s1)C(=O)N[C@@H](COC)C(=O)N[C@@H](Cc1ccccc1)C(=O)[C@@]1(C)CO1 [Oprozomib (ONX 0912)]
remaining activity at 1.25 µM ([1]; Well no.=4976, low concentration screen): 90.1% | remaining activity at 3.75 µM ([2]; Well no.=4976, high concentration screen): 89.5%

O=C(O)c1c(O)cccc1O [2,6-Dihydroxybenzoic acid]
remaining activity at 1.25 µM ([1]; Well no.=6921, low concentration screen): 108% | remaining activity at 3.75 µM ([2]; Well no.=6921, high concentration screen): 105%

N#C/C(=C\c1ccc(O)c(O)c1)C(=O)NCc1ccccc1 [Tyrphostin AG 490]
remaining activity at 1.25 µM ([1]; Well no.=1381, low concentration screen): 101% | remaining activity at 3.75 µM ([2]; Well no.=1381, high concentration screen): 102%

NCCCCCNCC12CC3CC(CC(C3)C1)C2 [IEM 1754 dihydrobroMide]
remaining activity at 1.25 µM ([1]; Well no.=5175, low concentration screen): 97.7% | remaining activity at 3.75 µM ([2]; Well no.=5175, high concentration screen): 99.2%

C1CCC(C(CC2CCCCN2)C2CCCCC2)CC1 (centres unmarked) [Perhexiline maleate salt]
remaining activity at 1.25 µM ([1]; Well no.=5958, low concentration screen): 97.2% | remaining activity at 3.75 µM ([2]; Well no.=5958, high concentration screen): 95.4%

CN1[C@@H](CC(=O)c2ccccc2)CCC[C@H]1C[C@H](O)c1ccccc1
remaining activity at 1.25 µM ([1]; Well no.=3438, low concentration screen): 97.9% | remaining activity at 3.75 µM ([2]; Well no.=3438, high concentration screen): 97.7%

Nc1nc(=O)c2c([nH]1)NCC(CNc1ccc(C(=O)N[C@@H](CCC(=O)O)C(=O)O)cc1)N2C=O (some centres unmarked) [Leucovorin Calcium]
remaining activity at 1.25 µM ([1]; Well no.=4757, low concentration screen): 103% | remaining activity at 3.75 µM ([2]; Well no.=4757, high concentration screen): 107%

c1ccc(Cn2c(-c3ccc(OC[C@H](C4CCNCC4)n4c(-c5ccccc5)nc5ccccc54)cc3)nc3ccccc32)cc1 [Deltarasin]
remaining activity at 1.25 µM ([1]; Well no.=8476, low concentration screen): 95.2% | remaining activity at 3.75 µM ([2]; Well no.=8476, high concentration screen): 92.7%

N#Cc1ccc2[nH]cc(CCCCN3CCN(c4ccc5oc(C(N)=O)cc5c4)CC3)c2c1 [Vilazodone (Hydrochloride)]
remaining activity at 1.25 µM ([1]; Well no.=6286, low concentration screen): 105% | remaining activity at 3.75 µM ([2]; Well no.=6286, high concentration screen): 106%

Cn1c(=O)c(F)c(Nc2ccc(I)cc2F)c2c(=O)n(C[C@@H](O)CO)cnc21 [TAK-733]
remaining activity at 1.25 µM ([1]; Well no.=4954, low concentration screen): 101% | remaining activity at 3.75 µM ([2]; Well no.=4954, high concentration screen): 97.8%

C[C@H](C#Cc1ccc(Cc2ccc(F)cc2)s1)N(O)C(N)=O [N-{(1R)-3-[5-(4-fluorobenzyl)-2-thienyl]-1-methyl-2-propynyl}-N-hydroxyurea]
remaining activity at 1.25 µM ([1]; Well no.=5434, low concentration screen): 99.4% | remaining activity at 3.75 µM ([2]; Well no.=5434, high concentration screen): 103%

CC[N+](C)(CC)CCOC(=O)C(O)(c1ccccc1)c1ccccc1 [Methylbenactyzium Bromide]
remaining activity at 1.25 µM ([1]; Well no.=7773, low concentration screen): 101% | remaining activity at 3.75 µM ([2]; Well no.=7773, high concentration screen): 94.7%

CCN(CC)CCNC(=O)c1c(C)[nH]c(/C=C2\C(=O)Nc3ccc(F)cc32)c1C [Sunitinib]
remaining activity at 1.25 µM ([1]; Well no.=2703, low concentration screen): 102% | remaining activity at 3.75 µM ([2]; Well no.=2703, high concentration screen): 100%

O=c1cc(-c2ccccc2)oc2cc(O)c(O)cc12 [6,7-Dihydroxyflavone]
remaining activity at 1.25 µM ([1]; Well no.=3441, low concentration screen): 100% | remaining activity at 3.75 µM ([2]; Well no.=3441, high concentration screen): 98.9%

COc1cc(/C=C/C(O)=C/C(=O)/C=C/c2ccc(O)cc2)ccc1O [Demethoxycurcumin]
remaining activity at 1.25 µM ([1]; Well no.=6262, low concentration screen): 103% | remaining activity at 3.75 µM ([2]; Well no.=6262, high concentration screen): 98.7%

NCCCC[C@@H]1NC(=O)[C@@H](Cc2ccccc2)NC(=O)[C@H](CC(=O)O)NC(=O)CNC(=O)[C@H](CCCN=C(N)N)NC1=O [Cyclo(-RGDfK)]
remaining activity at 1.25 µM ([1]; Well no.=8410, low concentration screen): 96.3% | remaining activity at 3.75 µM ([2]; Well no.=8410, high concentration screen): 96.9%

COc1ccc2cc(-c3nc(-c4ccc([S+](C)[O-])cc4)[nH]c3-c3ccncc3)ccc2c1 (centres unmarked) [Tie2 kinase inhibitor]
remaining activity at 1.25 µM ([1]; Well no.=4965, low concentration screen): 91% | remaining activity at 3.75 µM ([2]; Well no.=4965, high concentration screen): 90.7%

CCCCCCCCCCC/C=C\CCCCC(=O)O [6(Z)-Octadecenoic acid]
remaining activity at 1.25 µM ([1]; Well no.=4316, low concentration screen): 103% | remaining activity at 3.75 µM ([2]; Well no.=4316, high concentration screen): 98.8%

CN1Cc2sccc2C(c2ccc(O)c(O)c2)C1 (centres unmarked) [SKF 89145 hydrobromide]
remaining activity at 1.25 µM ([1]; Well no.=1218, low concentration screen): 92.6% | remaining activity at 3.75 µM ([2]; Well no.=1218, high concentration screen): 98.3%

C/C(=N\NC(=S)N1CCC1)c1ccccn1 [NSC319726]
remaining activity at 1.25 µM ([1]; Well no.=6736, low concentration screen): 102% | remaining activity at 3.75 µM ([2]; Well no.=6736, high concentration screen): 102%

O=C(CCCCCCc1ccccc1)c1ncc(-c2ccccn2)o1 [7-phenyl-1-[5-(2-pyridinyl)-1,3-oxazol-2-yl]-1-heptanone]
remaining activity at 1.25 µM ([1]; Well no.=5997, low concentration screen): 92.2% | remaining activity at 3.75 µM ([2]; Well no.=5997, high concentration screen): 91.9%

OC(CCN1CCCCC1)(c1ccccc1)C1CCCCC1 (centres unmarked) [Trihexyphenidyl hydrochloride]
remaining activity at 1.25 µM ([1]; Well no.=1187, low concentration screen): 92.8% | remaining activity at 3.75 µM ([2]; Well no.=1187, high concentration screen): 92%

OC[C@H]1O[C@@H](n2cnc3c(N[C@@H]4C[C@H]5CC[C@H]4C5)ncnc32)[C@H](O)[C@@H]1O [(S)-ENBA]
remaining activity at 1.25 µM ([1]; Well no.=465, low concentration screen): 102% | remaining activity at 3.75 µM ([2]; Well no.=465, high concentration screen): 105%

CCCc1cc(C(N)=S)ccn1 [Prothionamide]
remaining activity at 1.25 µM ([1]; Well no.=2147, low concentration screen): 97% | remaining activity at 3.75 µM ([2]; Well no.=2147, high concentration screen): 99.4%

CCCCC/C=C\C/C=C\C/C=C\CCCCCCC(=O)O [Dihomo-γ-linolenic acid]
remaining activity at 1.25 µM ([1]; Well no.=4317, low concentration screen): 99% | remaining activity at 3.75 µM ([2]; Well no.=4317, high concentration screen): 99.1%

COc1ccc(C[C@@H](C)NC[C@H](O)c2ccc(O)c(NC=O)c2)cc1 [Formoterol]
remaining activity at 1.25 µM ([1]; Well no.=473, low concentration screen): 101% | remaining activity at 3.75 µM ([2]; Well no.=473, high concentration screen): 99.6%
